Measured values from patent US10800791B2, “Triazole ACC inhibitors and uses thereof” (Gilead Apollo, LLC, priority 2015, dated 2020).
Converted amounts (≈) assume the structure as drawn. Read-outs that look alike come from different tables or passages of the source.

Legend:
[1] = system: Fusarium moniliforme (Fm); assay: Growth inhibition assay of fungal pathogens, Fm; assay type: cell-based; details: for IC90: Fusarium verticillioides, 48 h, read-out: Concentration at 90% Inhibition Fm
Procedure, shortened: (§1)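 Spores from sub-cultured plates were diluted in 17% V8 liquid medium and exposed to compound from DMSO stocks at final concentrations of 50, 10 and 2 ppm or 2, 0.4 and 0.08 ppm. OD600 and visual ratings at 48 h were compared with the 2% DMSO control to give percent growth inhibition.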

[2] = system: C. krusei; assay: Antifungal Activity Assay (broth microtiter MIC), C. krusei; assay type: cell-based, Candida krusei; details: Pichia kudriavzevii, ATCC6258, 48 h
Procedure, shortened: (§2)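 MICs were scored by eye at 48 h relative to the growth control. Plates followed CLSI M27-A3, with Candida suspensions in RPMI 1640+MOPS giving a final 2.5×10^3 CFU/mL; the colonies came from Sabouraud agar grown overnight at 35 °C.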

[3] = system: Fusarium virguliforme (Fv); assay: Growth inhibition assay of fungal pathogens, Fv; assay type: cell-based; details: 48 h
Procedure, shortened: as §1

[4] = system: C. albicans; assay: Antifungal Activity Assay (broth microtiter MIC), C. albicans; assay type: cell-based, Candida albicans; details: Candida albicans, ATCC90028, 48 h
Procedure, shortened: as §2

[5] = system: Septoria tritici (St); assay: Growth inhibition assay of fungal pathogens, St; assay type: cell-based; details: Zymoseptoria tritici, 48 h
Procedure, shortened: as §1

[6] = system: C. parapsilosis; assay: Antifungal Activity Assay (broth microtiter MIC), C. parapsilosis; assay type: cell-based, Candida parapsilosis; details: Lodderomyces parapsilosis, ATCC22019, 48 h
Procedure, shortened: as §2

[7] = system: Diplodia maydis (Dm); assay: Growth inhibition assay of fungal pathogens, Dm; assay type: cell-based; details: Stenocarpella maydis, 48 h
Procedure, shortened: as §1

[8] = system: Botrtyis cinerea (Bc); assay: Growth inhibition assay of fungal pathogens, Bc; assay type: cell-based; details: 48 h
Procedure, shortened: as §1

[9] = system: Rhizoctonia solani (Rs); assay: Growth inhibition assay of fungal pathogens, Rs; assay type: cell-based; details: 48 h
[10] = target: fungal (fACC2) (UniProt Q00955); details: read-out: fACC2 (in vitro ACC2 Inhibition Assay, IC50), ADP-Glo, 5 nM ACC2, 20 μM ATP, 20 μM acetyl-CoA
Protocol: An exemplary procedure for the in vitro ACC inhibition assay, which can be used to determine the inhibitory action of compounds of the invention toward either human (hACC2) or fungal (fACC2), follows. The ADP-Glo™ Kinase Assay kit from Promega was used. The ADP-Glo™ Kinase Assay is a luminescent ADP detection assay to measure enzymatic activity by quantifying the amount of ADP produced during an enzyme reaction. The assay is performed in two steps; first, after the enzyme reaction, an equal volume of ADP-Glo™ Reagent is added to terminate the reaction and deplete the remaining ATP. Second, the Kinase Detection Reagent is added to simultaneously convert ADP to ATP and allow the newly synthesized ATP to be measured using a luciferase/luciferin reaction. Luminescence can be correlated to ADP concentrations by using an ATP-to-ADP conversion curve. […] 50 μL of the compound being tested (600 μM in DMSO) was added to a 384-well dilution plate. The compound was diluted 1:3 in succession in DMSO for each row for 11 wells. 0.5 μL ACC2 working solution was added to 384-well white Optiplate assay plate. 0.5 μL diluted compound solution in each column from step 2 was added to assay plate, each row containing 2 replicates. […] The plates were incubated at room temperature for 15 minutes. 5 μL substrate working solution was added to each well to initiate reaction. Final ACC2 reaction concentrations consist of: 5 nM ACC2, 20 μM ATP, 20 μM acetyl-CoA, 12 mM NaHCO3, 0.01% Brij35, 2 mM DTT, 5% DMSO, test compound concentrations: 30 μM, 10 μM, 3.33 μM, 1.11 μM, 0.37 μM, 0.123 μM, 0.0411 μM, 0.0137 μM, 0.00457 μM, 0.00152 μM, and 0.00051 μM. Plates were incubated at room temperature for 60 minutes. 10 μL ADP glo reagent was added. Plates were incubated at room temperature for 40 minutes. 20 μL kinase detection reagent was added. Plates were incubated at room temperature for 40 minutes, and then read on a Perkin Elmer EnVision 2104 plate reader for luminescence as Relative Light Units (RLU).
Data for each concentration, as well as the positive and negative controls were averaged, and the standard deviation calculated. Percent inhibition was calculated by the formula: 100×(average negative control−compound)/(average negative control−average positive control). The IC50 for each compound was calculated by fitting the data with a non-linear regression equation: Y=Bottom+(Top−Bottom)/(1+10 ((Log IC50−X)*HillSlope)), where X is the log of compound concentration and Y is percent inhibition.

[11] = system: Collectotrichum graminicola (Cg); assay: Growth inhibition assay of fungal pathogens, Cg; assay type: cell-based; details: 48 h
Procedure, shortened: as §1

[12] = Fusarium moniliforme, growth inhibition at 48 hours vs 2% DMSO control
[13] = Fusarium moniliforme, growth inhibition vs 2% DMSO control at 48 hours
[14] = Table 3a, ATCC 6258, 3 replicates, MIC recorded at 48 h, read-out: MIC, C. krusei ATCC 6258
[15] = Table 3b (additional results), ATCC 6258, 3 replicates, MIC recorded at 48 h, read-out: MIC, C. krusei ATCC 6258
[16] = growth inhibition at 48 hours vs 2% DMSO control, read-out: Concentration at 90% Inhibition Fv
[17] = growth inhibition vs 2% DMSO control at 48 hours, read-out: Concentration at 90% Inhibition Fv
[18] = Table 3a, ATCC 90028, 3 replicates, MIC recorded at 48 h, read-out: MIC, C. albicans ATCC 90028
[19] = Table 3b (additional results), ATCC 90028, 3 replicates, MIC recorded at 48 h, read-out: MIC, C. albicans ATCC 90028
[20] = Septoria tritici, growth inhibition at 48 hours vs 2% DMSO control, read-out: Concentration at 90% Inhibition St
[21] = Septoria tritici, growth inhibition vs 2% DMSO control at 48 hours, read-out: Concentration at 90% Inhibition St
[22] = Table 3a, ATCC 22019, 3 replicates, MIC recorded at 48 h, read-out: MIC, C. parapsilosis ATCC 22019
[23] = Table 3b (additional results), ATCC 22019, 3 replicates, MIC recorded at 48 h, read-out: MIC, C. parapsilosis ATCC 22019
[24] = Diplodia maydis, growth inhibition at 48 hours vs 2% DMSO control, read-out: Concentration at 90% Inhibition Dm
[25] = Diplodia maydis, growth inhibition vs 2% DMSO control at 48 hours, read-out: Concentration at 90% Inhibition Dm
[26] = Botrtyis cinerea, growth inhibition at 48 hours vs 2% DMSO control, read-out: Concentration at 90% Inhibition Bc
[27] = Botrtyis cinerea, growth inhibition vs 2% DMSO control at 48 hours, read-out: Concentration at 90% Inhibition Bc
[28] = mycelial plugs, growth inhibition at 48 hours vs 2% DMSO control, read-out: Concentration at 90% Inhibition Rs
[29] = mycelial plugs, growth inhibition vs 2% DMSO control at 48 hours, read-out: Concentration at 90% Inhibition Rs
[30] = Collectotrichum graminicola, growth inhibition at 48 hours vs 2% DMSO control, read-out: Concentration at 90% Inhibition Cg
[31] = Collectotrichum graminicola, growth inhibition vs 2% DMSO control at 48 hours, read-out: Concentration at 90% Inhibition Cg

Sequence of fungal (fACC2) (Q00955 whole entry): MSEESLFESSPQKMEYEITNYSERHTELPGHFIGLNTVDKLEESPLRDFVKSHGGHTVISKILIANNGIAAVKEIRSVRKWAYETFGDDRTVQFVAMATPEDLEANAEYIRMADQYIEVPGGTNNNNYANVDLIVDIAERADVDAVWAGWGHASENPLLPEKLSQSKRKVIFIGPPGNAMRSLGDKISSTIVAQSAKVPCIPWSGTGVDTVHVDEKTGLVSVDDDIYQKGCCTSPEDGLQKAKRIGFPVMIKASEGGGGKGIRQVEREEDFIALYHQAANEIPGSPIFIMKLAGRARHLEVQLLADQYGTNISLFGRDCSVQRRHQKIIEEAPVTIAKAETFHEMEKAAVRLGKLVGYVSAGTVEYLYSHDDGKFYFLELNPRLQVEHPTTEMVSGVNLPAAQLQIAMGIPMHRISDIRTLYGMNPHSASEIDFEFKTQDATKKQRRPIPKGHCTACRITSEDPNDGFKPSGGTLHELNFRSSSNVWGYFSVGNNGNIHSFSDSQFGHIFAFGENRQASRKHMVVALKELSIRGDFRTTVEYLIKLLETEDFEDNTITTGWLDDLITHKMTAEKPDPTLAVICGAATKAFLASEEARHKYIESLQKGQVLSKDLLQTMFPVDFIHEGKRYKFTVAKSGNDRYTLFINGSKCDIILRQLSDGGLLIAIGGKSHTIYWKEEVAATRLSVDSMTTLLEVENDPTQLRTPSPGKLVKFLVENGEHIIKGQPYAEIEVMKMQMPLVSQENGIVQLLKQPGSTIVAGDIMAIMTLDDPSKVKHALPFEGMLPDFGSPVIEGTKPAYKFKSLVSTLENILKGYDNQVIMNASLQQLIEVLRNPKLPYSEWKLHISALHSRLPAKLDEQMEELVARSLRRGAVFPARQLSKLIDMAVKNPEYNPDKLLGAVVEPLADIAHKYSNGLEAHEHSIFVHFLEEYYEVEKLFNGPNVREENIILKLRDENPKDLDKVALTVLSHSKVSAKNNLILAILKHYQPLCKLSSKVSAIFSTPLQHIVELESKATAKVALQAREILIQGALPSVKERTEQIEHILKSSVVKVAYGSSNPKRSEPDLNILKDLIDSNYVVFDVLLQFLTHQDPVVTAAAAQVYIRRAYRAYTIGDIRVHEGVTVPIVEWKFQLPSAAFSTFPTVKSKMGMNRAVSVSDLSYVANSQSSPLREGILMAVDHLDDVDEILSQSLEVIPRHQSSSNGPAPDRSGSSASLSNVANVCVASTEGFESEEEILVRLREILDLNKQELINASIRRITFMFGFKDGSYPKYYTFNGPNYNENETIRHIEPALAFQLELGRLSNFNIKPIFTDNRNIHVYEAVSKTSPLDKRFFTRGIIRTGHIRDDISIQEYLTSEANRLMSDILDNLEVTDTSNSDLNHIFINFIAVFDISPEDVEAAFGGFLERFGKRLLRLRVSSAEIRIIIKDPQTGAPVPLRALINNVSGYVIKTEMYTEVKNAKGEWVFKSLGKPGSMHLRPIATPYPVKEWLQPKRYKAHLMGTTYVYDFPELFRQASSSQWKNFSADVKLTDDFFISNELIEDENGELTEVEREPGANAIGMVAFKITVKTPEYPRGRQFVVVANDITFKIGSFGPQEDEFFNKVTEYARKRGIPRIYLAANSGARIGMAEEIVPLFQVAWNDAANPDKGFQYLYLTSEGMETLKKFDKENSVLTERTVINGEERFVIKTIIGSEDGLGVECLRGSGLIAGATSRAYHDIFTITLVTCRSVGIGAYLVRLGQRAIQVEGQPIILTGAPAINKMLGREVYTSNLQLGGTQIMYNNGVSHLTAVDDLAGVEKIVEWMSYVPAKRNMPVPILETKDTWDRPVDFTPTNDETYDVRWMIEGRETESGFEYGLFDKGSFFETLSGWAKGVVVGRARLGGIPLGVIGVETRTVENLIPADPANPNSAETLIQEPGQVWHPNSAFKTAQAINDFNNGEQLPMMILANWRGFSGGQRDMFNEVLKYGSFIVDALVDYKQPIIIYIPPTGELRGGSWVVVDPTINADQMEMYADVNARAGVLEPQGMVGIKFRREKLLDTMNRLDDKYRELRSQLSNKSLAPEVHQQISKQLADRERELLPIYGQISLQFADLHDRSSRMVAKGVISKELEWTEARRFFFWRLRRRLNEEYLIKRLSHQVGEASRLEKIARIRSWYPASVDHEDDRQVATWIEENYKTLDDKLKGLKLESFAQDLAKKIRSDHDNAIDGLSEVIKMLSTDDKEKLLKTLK

COc1ccc(F)cc1[C@H](Cn1c(=O)n(C(C)(C)C(=O)NC(C)C)c(=O)c2c(C)c(-n3nccn3)sc21)OC(C)C [Compound I-4, (R)-2-(1-(2-(5-fluoro-2-methoxyphenyl)-2-isopropoxyethyl)-5-methyl-2,4-dioxo-6-(2H-1,2,3-triazol-2-yl)-1,4-dihydrothieno[2,3-d]pyrimidin-3(2H)-yl)-N-isopropyl-2-methylpropanamide]
Concentration at 90% Inhibition Fm [1, 12]: AA (compound concentration of 0.08 ppm at 90% inhibition of fungal pathogens)
IC90 [1]: 0.08 µg/mL (≈ 0.136 µM)
MIC ([2]; read-out: MIC, C. krusei ATCC 6258, Table 3a, 3 replicates, MIC recorded at 48 h): 0.25 to 1 µg/mL (≈ 0.426 to 1.7 µM)
MIC ([2]; read-out: MIC, C. krusei ATCC 6258, Table 3b (additional results), 3 replicates, MIC recorded at 48 h): 0.25 to 1 µg/mL (≈ 0.426 to 1.7 µM)
IC90 ([3]; read-out: Concentration at 90% Inhibition Fv, Fusarium virguliforme, growth inhibition at 48 hours vs 2% DMSO control): 0.4 µg/mL (≈ 0.682 µM)
IC90 ([3]; read-out: Concentration at 90% Inhibition Fv, Fusarium virguliforme, growth inhibition vs 2% DMSO control at 48 hours): 0.4 µg/mL (≈ 0.682 µM)
MIC ([4]; read-out: MIC, C. albicans ATCC 90028, Table 3a, 3 replicates, MIC recorded at 48 h): 0.25 to 1 µg/mL (≈ 0.426 to 1.7 µM)
MIC ([4]; read-out: MIC, C. albicans ATCC 90028, Table 3b (additional results), 3 replicates, MIC recorded at 48 h): 0.25 to 1 µg/mL (≈ 0.426 to 1.7 µM)
IC90 ([5]; read-out: Concentration at 90% Inhibition St, Septoria tritici, growth inhibition at 48 hours vs 2% DMSO control): 2 µg/mL (≈ 3.41 µM)
IC90 ([5]; read-out: Concentration at 90% Inhibition St, Septoria tritici, growth inhibition vs 2% DMSO control at 48 hours): 10 µg/mL (≈ 17 µM)
MIC ([6]; read-out: MIC, C. parapsilosis ATCC 22019, Table 3a, 3 replicates, MIC recorded at 48 h): 0.25 to 1 µg/mL (≈ 0.426 to 1.7 µM)
MIC ([6]; read-out: MIC, C. parapsilosis ATCC 22019, Table 3b (additional results), 3 replicates, MIC recorded at 48 h): 1.01 to 2 µg/mL (≈ 1.72 to 3.41 µM)
IC90 ([7]; read-out: Concentration at 90% Inhibition Dm, Diplodia maydis, growth inhibition at 48 hours vs 2% DMSO control): 0.08 µg/mL (≈ 0.136 µM)
IC90 ([7]; read-out: Concentration at 90% Inhibition Dm, Diplodia maydis, growth inhibition vs 2% DMSO control at 48 hours): 0.08 µg/mL (≈ 0.136 µM)
IC90 ([8]; read-out: Concentration at 90% Inhibition Bc, Botrtyis cinerea, growth inhibition at 48 hours vs 2% DMSO control): 0.08 µg/mL (≈ 0.136 µM)
IC90 ([8]; read-out: Concentration at 90% Inhibition Bc, Botrtyis cinerea, growth inhibition vs 2% DMSO control at 48 hours): 0.08 µg/mL (≈ 0.136 µM)
IC90 ([9]; read-out: Concentration at 90% Inhibition Rs, Rhizoctonia solani, mycelial plugs, growth inhibition at 48 hours vs 2% DMSO control): 0.08 µg/mL (≈ 0.136 µM)
IC90 ([9]; read-out: Concentration at 90% Inhibition Rs, Rhizoctonia solani, mycelial plugs, growth inhibition vs 2% DMSO control at 48 hours): 0.08 µg/mL (≈ 0.136 µM)
IC50 ([10]; Table 2a): 1 to 5 nM
IC50 ([10]; Table 2b, additional results): 1 to 5 nM
IC90 ([11]; read-out: Concentration at 90% Inhibition Cg, Collectotrichum graminicola, growth inhibition at 48 hours vs 2% DMSO control): 0.08 µg/mL (≈ 0.136 µM)
IC90 ([11]; read-out: Concentration at 90% Inhibition Cg, Collectotrichum graminicola, growth inhibition vs 2% DMSO control at 48 hours): 0.08 µg/mL (≈ 0.136 µM)

COc1ccc(F)cc1[C@H](Cn1c(=O)n(C(C)(C)C(=O)N2CCCC2)c(=O)c2c(C)c(-n3nccn3)sc21)OC(C)C [Compound I-7, (R)-1-(2-(5-fluoro-2-methoxyphenyl)-2-isopropoxyethyl)-5-methyl-3-(2-methyl-1-oxo-1-(pyrrolidin-1-yl)propan-2-yl)-6-(2H-1,2,3-triazol-2-yl)thieno[2,3-d]pyrimidine-2,4(1H,3H)-dione]
IC90 [1, 12]: 0.08 µg/mL (≈ 0.134 µM)
IC90 [1, 13]: 0.08 µg/mL (≈ 0.134 µM)
MIC [2, 14]: 0.25 to 1 µg/mL (≈ 0.418 to 1.67 µM)
MIC [2, 15]: 0.25 to 1 µg/mL (≈ 0.418 to 1.67 µM)
IC90 [3, 16]: 0.08 µg/mL (≈ 0.134 µM)
IC90 [3, 17]: 0.08 µg/mL (≈ 0.134 µM)
MIC [4, 18]: 1.1 to 2 µg/mL (≈ 1.84 to 3.34 µM)
MIC [4, 19]: 0.25 to 1 µg/mL (≈ 0.418 to 1.67 µM)
IC90 [5, 20]: 10 µg/mL (≈ 16.7 µM)
IC90 [5, 21]: > 50 µg/mL
MIC [6, 22]: 1.1 to 2 µg/mL (≈ 1.84 to 3.34 µM)
MIC [6, 23]: 1.01 to 2 µg/mL (≈ 1.69 to 3.34 µM)
IC90 [7, 24]: 0.08 µg/mL (≈ 0.134 µM)
IC90 [7, 25]: 0.08 µg/mL (≈ 0.134 µM)
IC90 [8, 26]: 0.4 µg/mL (≈ 0.668 µM)
IC90 [8, 27]: 0.4 µg/mL (≈ 0.668 µM)
IC90 [9, 28]: 0.08 µg/mL (≈ 0.134 µM)
IC90 [9, 29]: 0.08 µg/mL (≈ 0.134 µM)
IC50 ([10]; Table 2a): 1 to 5 nM
IC50 ([10]; Table 2b, additional results): 1 to 5 nM
IC90 [11, 30]: 0.08 µg/mL (≈ 0.134 µM)
IC90 [11, 31]: 0.08 µg/mL (≈ 0.134 µM)

COc1ccc(F)cc1[C@H](Cn1c(=O)n(C(C)(C)C(=O)NC2CCC2)c(=O)c2c(C)c(-n3nccn3)sc21)OC1CCOCC1 [Compound I-27, (R)—N-cyclobutyl-2-(1-(2-(5-fluoro-2-methoxyphenyl)-2-((tetrahydro-2H-pyran-4-yl)oxy)ethyl)-5-methyl-2,4-dioxo-6-(2H-1,2,3-triazol-2-yl)-1,4-dihydrothieno[2,3-d]pyrimidin-3(2H)-yl)-2-methylpropanamide]
IC90 [1, 12]: 0.08 µg/mL (≈ 0.125 µM)
IC90 [1, 13]: 0.08 µg/mL (≈ 0.125 µM)
MIC [2, 14]: 0.06 to 0.24 µg/mL (≈ 0.0936 to 0.375 µM)
MIC [2, 15]: 0.06 to 0.249 µg/mL (≈ 0.0936 to 0.389 µM)
IC90 [3, 16]: 0.4 µg/mL (≈ 0.624 µM)
IC90 [3, 17]: 0.4 µg/mL (≈ 0.624 µM)
MIC [4, 18]: 0.25 to 1 µg/mL (≈ 0.39 to 1.56 µM)
MIC [4, 19]: 0.25 to 1 µg/mL (≈ 0.39 to 1.56 µM)
IC90 [5, 20]: 2 µg/mL (≈ 3.12 µM)
IC90 [5, 21]: 10 µg/mL (≈ 15.6 µM)
MIC [6, 22]: 0.25 to 1 µg/mL (≈ 0.39 to 1.56 µM)
MIC [6, 23]: 0.25 to 1 µg/mL (≈ 0.39 to 1.56 µM)
IC90 [7, 24]: 0.4 µg/mL (≈ 0.624 µM)
IC90 [7, 25]: 0.4 µg/mL (≈ 0.624 µM)
IC90 [8, 26]: 0.4 µg/mL (≈ 0.624 µM)
IC90 [8, 27]: 0.4 µg/mL (≈ 0.624 µM)
IC90 [9, 28]: 0.08 µg/mL (≈ 0.125 µM)
IC90 [9, 29]: 0.08 µg/mL (≈ 0.125 µM)
IC50 ([10]; Table 2a): 1 to 5 nM
IC50 ([10]; Table 2b, additional results): 1 to 5 nM
IC90 [11, 30]: 0.4 µg/mL (≈ 0.624 µM)
IC90 [11, 31]: 0.4 µg/mL (≈ 0.624 µM)
